Assay results: patent publication US10752612B2, “PLK4 inhibitors” (LUDWIG INSTITUTE FOR CANCER RESEARCH LTD, priority 2015, dated 2020)

The compounds below were run against T1, human Plk4 kinase domain (aa 2-275) (Homo sapiens, UniProt O00444) (assay: Plk4 kinase assay (ADP-Glo)). Conditions: Table 1.
T1 construct: purified 6×His-tagged human Plk4 kinase domain (aa 2-275); 6xHis; made in house; host or cells: E. coli
T1 sequence (O00444 2-275): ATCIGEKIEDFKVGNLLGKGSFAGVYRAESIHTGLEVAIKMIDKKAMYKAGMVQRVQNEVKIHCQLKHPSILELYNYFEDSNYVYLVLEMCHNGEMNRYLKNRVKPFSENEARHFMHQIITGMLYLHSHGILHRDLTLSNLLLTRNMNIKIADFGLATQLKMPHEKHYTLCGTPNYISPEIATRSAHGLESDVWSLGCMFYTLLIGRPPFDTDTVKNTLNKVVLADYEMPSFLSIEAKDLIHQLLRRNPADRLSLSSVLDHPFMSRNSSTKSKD
Assay type: biochemical
Procedure: Kinase assays. […] The Plk4 concentration in the final reaction was 2.5-10 nM with a final pH of 8.0. […] Reactions were allowed to proceed for 4-16 hours at 25° C. Detection was performed using ADP-Glo reagent (Promega), following manufacturer's instructions. Luminescence was measured on an Infinite M1000 plate reader (Tecan). Data were fit using Prism (GraphPad) and Kis were calculated from IC50 data using the Cheng and Prusoff equation (37) or the Copeland formalism for tight-binding inhibitors (38).

SMILES	IC50
CCN(CC)c1nc(Sc2ccc(NC(=O)C3CCCC3)cc2)nc(Nc2cc(C)[nH]n2)c1OC	100 to 1000 nM
CCN(C)c1nc(Sc2ccc(NC(=O)C3CCCC3)cc2)nc(Nc2cc(C)[nH]n2)c1OC	100 to 1000 nM
COc1c(Nc2cc(C)[nH]n2)nc(Sc2ccc(NC(C)=O)cc2)nc1N1CCN(CCN(C)C)CC1C (stereo not shown)	> 1000 nM
COc1c(Nc2cc(CC(=O)Nc3cccc(F)c3)[nH]n2)nc(SC)nc1N1CCN(CCN(C)C)CC1	> 1000 nM
COc1c(Nc2cc(C)[nH]n2)nc(Sc2ccc(S(=O)(=O)C(F)(F)F)cc2)nc1N1CCN(CCN(C)C)CC1	< 1000 nM
COc1c(Nc2cc(C)[nH]n2)nc(Sc2ccc(S(=O)(=O)N(C)C)cc2)nc1N1CCN(CCN(C)C)CC1	< 1000 nM
CC(=O)Nc1ccc(Sc2nc(Nc3cc(C)[nH]n3)cc(C3CCN(CCN(C)C)CC3)n2)cc1	100 to 1000 nM
COc1c(Nc2cc(C)[nH]n2)nc(Sc2ccc(S(=O)(=O)Cc3ccccc3)cc2)nc1N1CCN(CCN(C)C)CC1	< 1000 nM
COc1c(Nc2cc(C)[nH]n2)nc(Sc2ccc(S(=O)(=O)COCc3ccccc3)cc2)nc1N1CCN(CCN(C)C)CC1	< 1000 nM
COc1c(Nc2nccs2)nc(Sc2ccc(NC(C)=O)cc2)nc1N1CCN(CCN(C)C)CC1	100 to 1000 nM
COc1c(Nc2ncc(C)s2)nc(Sc2ccc(S(C)(=O)=O)cc2)nc1N1CCN(CCN(C)C)CC1	< 1000 nM
COc1c(Nc2cc(C)[nH]n2)nc(Sc2ccc(S(C)(=O)=O)cc2)nc1C1CCN(CCN(C)C)CC1	100 to 1000 nM
COc1c(Nc2cc(C)[nH]n2)nc(Sc2ccc(NC(C)=O)cc2)nc1C1CCN(CCN2CCN(C)CC2)CC1	< 1000 nM
COc1c(Nc2cc(C)[nH]n2)nc(Sc2ccc(S(=O)(=O)CCO)cc2)nc1N1CCN(CCN(C)C)CC1	< 1000 nM
CCCS(=O)(=O)c1ccc(Sc2nc(Nc3cc(C)[nH]n3)c(OC)c(N3CCN(CCN(C)C)CC3)n2)cc1	< 1000 nM
CCS(=O)(=O)c1ccc(Sc2nc(Nc3cc(C)[nH]n3)c(OC)c(N3CCC(CCN(C)C)CC3)n2)cc1	< 1000 nM
COc1c(Nc2cc(C)[nH]n2)nc(Sc2ccc(S(=O)(=O)CC(C)C)cc2)nc1N1CCN(CCN(C)C)CC1	< 1000 nM
CCS(=O)(=O)c1ccc(Sc2nc(Nc3cc(C)[nH]n3)c(OC)c(N3CCN(CCN4CCN(C)CC4)CC3)n2)cc1	< 1000 nM
COc1c(Nc2cc(C)[nH]n2)nc(Sc2ccc(S(=O)(=O)C(C)C)cc2)nc1N1CCN(CCN(C)C)CC1	< 1000 nM
COc1c(Nc2cc(C)[nH]n2)nc(Sc2ccc(S(=O)(=O)Cc3ccc(F)cc3)cc2)nc1N1CCN(CCN(C)C)CC1	< 1000 nM
COc1ccc(CS(=O)(=O)c2ccc(Sc3nc(Nc4cc(C)[nH]n4)c(OC)c(N4CCN(CCN(C)C)CC4)n3)cc2)cc1	< 1000 nM
COc1c(Nc2cc(C)[nH]n2)nc(Sc2ccc(S(=O)(=O)Cc3ccccc3Cl)cc2)nc1N1CCN(CCN(C)C)CC1	< 1000 nM
COc1c(Nc2cc(C)[nH]n2)nc(Sc2ccc(S(=O)(=O)Cc3cccc(Cl)c3)cc2)nc1N1CCN(CCN(C)C)CC1	< 1000 nM
COc1c(Nc2cc(C)[nH]n2)nc(Sc2ccc(S(=O)(=O)Cc3ccncc3)cc2)nc1N1CCN(CCN(C)C)CC1	< 1000 nM
COc1c(Nc2cc(C)[nH]n2)nc(Sc2ccc(S(C)(=O)=O)cc2)nc1N1CCC(CCN(C)C)CC1	< 1000 nM
COc1c(Nc2cc(C)[nH]n2)nc(Sc2ccc(S(=O)(=O)Cc3ccccc3)cc2)nc1N1CCC(CCN(C)C)CC1	< 1000 nM
COc1c(Nc2cc(C)[nH]n2)nc(Sc2ccc(S(=O)(=O)Cc3ccccc3)cc2)nc1N1CCN(C)CC1	< 1000 nM
CCS(=O)(=O)c1ccc(Sc2nc(Nc3cc(C)[nH]n3)c(OC)c(N3CCN(C)CC3)n2)cc1	< 1000 nM
COc1c(Nc2cc(C)[nH]n2)nc(Sc2ccc(S(=O)(=O)Cc3cccnc3)cc2)nc1N1CCN(CCN(C)C)CC1	< 1000 nM

Further lines, results first:

IC50	SMILES
< 1000 nM	COCCNc1nc(Sc2ccc(NC(C)=O)cc2)nc(Nc2cc(C)[nH]n2)c1C
< 1000 nM	COc1c(Nc2cc(C)[nH]n2)nc(Sc2ccc(NC(=O)C3CCCC3)cc2)nc1N1CCOCC1
< 1000 nM	COc1c(Nc2cc(C)[nH]n2)nc(Sc2ccc(NC(=O)C3CCCC3)cc2)nc1N(C)C
< 1000 nM	COc1c(Nc2cc(C)[nH]n2)nc(Sc2ccc(NC(C)=O)cc2)nc1N1CCN(C(=N)N)CC1
< 1000 nM	COC(=O)CN1CCN(c2nc(Sc3ccc(NC(C)=O)cc3)nc(Nc3cc(C)[nH]n3)c2OC)CC1
< 1000 nM	COc1c(Nc2cc(C)[nH]n2)nc(Sc2ccc(NC(C)=O)cc2)nc1N1CCN(CCN2CCCCCC2)CC1
< 1000 nM	COc1c(Nc2cc(C)[nH]n2)nc(Sc2ccc(NC(C)=O)cc2)nc1N1CCN(CCN2CCCCCCC2)CC1
< 1000 nM	COc1c(Nc2cc(C)[nH]n2)nc(Sc2ccc(NC(C)=O)cc2)nc1N1CCN(CCNC(=N)N)CC1
< 1000 nM	COC(=O)c1ccc(Sc2nc(Nc3cc(C)[nH]n3)c(OC)c(N3CCN(CCN(C)C)CC3)n2)cc1
< 1000 nM	COc1c(Nc2cc(C)[nH]n2)nc(Sc2ccc(NC(C)=O)cc2)nc1N1CCN(CCN(C)C)CC1
< 1000 nM	COc1c(Nc2cc(C)[nH]n2)nc(Sc2ccc(NC(C)=O)cc2)nc1N1CCC(CC(=O)N(C)C)CC1
< 1000 nM	COc1c(Nc2cc(C)[nH]n2)nc(Sc2ccc(NC(C)=O)cc2)nc1N1CCC(CC(=O)N2CCCCC2)CC1
< 1000 nM	COc1c(Nc2cc(C)[nH]n2)nc(Sc2ccc(NC(C)=O)cc2)nc1N1CC2CCC(C1)N2CCN1CCN(C)CC1
< 1000 nM	COc1c(Nc2cc(C)[nH]n2)nc(Sc2ccc(C(C)=O)cc2)nc1N1CCN(CCN(C)C)CC1
< 1000 nM	COc1c(Nc2cc(C)[nH]n2)nc(Sc2ccc(C(=O)N(C)C)cc2)nc1N1CCN(CCN(C)C)CC1
< 1000 nM	COc1c(Nc2cc(C)[nH]n2)nc(Sc2ccc(S(C)(=O)=O)cc2)nc1N1CCN(CCN(C)C)CC1
< 1000 nM	CNC(=O)c1ccc(Sc2nc(Nc3cc(C)[nH]n3)c(OC)c(N3CCN(CCN(C)C)CC3)n2)cc1
< 1000 nM	COc1c(Nc2cc(C)[nH]n2)nc(Sc2ccc(NC(C)=O)cc2)nc1N1CCN(CCN(C)Cc2ccccc2)CC1
< 1000 nM	COc1c(Nc2cc(C)[nH]n2)nc(Sc2ccc(NC(C)=O)cc2)nc1N1CCN(CCN(C)c2ccccc2)CC1
< 1000 nM	COc1c(Nc2cc(C)[nH]n2)nc(Sc2ccc(NC(C)=O)cc2)nc1N1CCN(CCN2C3CCCC2CC3)CC1
< 1000 nM	COc1c(Nc2cc(C)[nH]n2)nc(Sc2ccc([S+](C)[O-])cc2)nc1N1CCN(CCN(C)C)CC1 (stereo not shown)
< 1000 nM	COc1c(Nc2cc(C)[nH]n2)nc(Sc2ccc(NC(C)=O)cc2)nc1N1CC2CCC(C1)N2CCN1CCCCCCC1
< 1000 nM	COc1c(Nc2cc(C)[nH]n2)nc(Sc2ccc(NC(C)=O)cc2)nc1N1CCN(CCS(C)(=O)=O)CC1
< 1000 nM	COc1c(Nc2cc(C)[nH]n2)nc(Sc2ccc(NC(C)=O)cc2)nc1N1CCN(CCN2C3CCCC2CCC3)CC1
< 1000 nM	COc1c(Nc2ncc(C)s2)nc(Sc2ccc(NC(C)=O)cc2)nc1N1CCN(CCN(C)C)CC1
< 1000 nM	CC(=O)Nc1ccc(Sc2nc(Nc3cc(C)[nH]n3)c(C)c(C3CCN(CCN(C)C)CC3)n2)cc1
< 1000 nM	COc1c(Nc2cc(C)[nH]n2)nc(Sc2ccc(S(C)(=O)=O)cc2)nc1N1CCN(CCN2CCN(C)CC2)CC1
< 1000 nM	COc1c(Nc2cc(C)[nH]n2)nc(Sc2ccc(NS(C)(=O)=O)cc2)nc1N1CCN(CCN(C)C)CC1
< 1000 nM	CCS(=O)(=O)c1ccc(Sc2nc(Nc3cc(C)[nH]n3)c(OC)c(N3CCN(CCN(C)C)CC3)n2)cc1
